Source: publication PMC5503158 (Cancer research, 2017)

Target: Bax (Homo sapiens, UniProt Q07812)
Test: competition fluorescence polarization assay with fluorescent Bak BH3 peptide
Assay type: binding

Bax, sequence (Q07812 whole entry): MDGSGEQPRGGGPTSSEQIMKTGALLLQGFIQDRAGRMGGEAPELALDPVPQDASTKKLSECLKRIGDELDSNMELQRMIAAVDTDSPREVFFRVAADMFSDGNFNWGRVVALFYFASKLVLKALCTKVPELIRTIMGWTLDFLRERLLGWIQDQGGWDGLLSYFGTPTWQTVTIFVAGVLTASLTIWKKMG

In the case of NCCOc1ccccc1C=C1c2ccccc2-c2ccc([N+](=O)[O-])cc21 [CYD-2-11], the Ki is reported as 34.1 ± 8.54 nM.
